Experimental data published in ChEMBL document CHEMBL1201862, “PubChem BioAssay data set” (2004).
Calls of active or inactive are those of the source.

Tests used:
[1] = target: Peroxisome proliferator-activated receptor gamma/Nuclear receptor corepressor 2 (Homo sapiens, UniProt P37231+Q9Y618); type: functional
[2] = target: Photoreceptor-specific nuclear receptor (Homo sapiens, UniProt Q9Y5X4); type: functional;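 also: potency for compounds that break the NR2E3 corepressor complex and count as activators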
Chain of Photoreceptor-specific nuclear receptor (Q9Y5X4 whole entry): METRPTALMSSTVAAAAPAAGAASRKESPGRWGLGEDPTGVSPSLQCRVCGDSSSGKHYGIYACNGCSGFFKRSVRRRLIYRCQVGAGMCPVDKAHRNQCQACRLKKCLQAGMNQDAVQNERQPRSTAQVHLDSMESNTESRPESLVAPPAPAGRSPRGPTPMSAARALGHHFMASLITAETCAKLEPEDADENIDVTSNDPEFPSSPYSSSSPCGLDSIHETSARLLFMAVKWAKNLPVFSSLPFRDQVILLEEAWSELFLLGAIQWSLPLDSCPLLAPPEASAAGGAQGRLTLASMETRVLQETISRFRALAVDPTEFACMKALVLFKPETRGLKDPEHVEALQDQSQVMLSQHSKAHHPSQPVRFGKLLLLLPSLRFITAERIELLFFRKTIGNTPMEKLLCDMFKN

[3] = NIH-3T3 fibroblast cytotoxicity, dose response, cytotoxicity control, cell-based, fluorescence, Alamar Blue, secondary assay (AID 2327); type: functional;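 also: NIH-3T3 mouse fibroblasts cultured with fluconazole at 8 µg/mL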
[4] = Luminescence Cell-Based Dose Retest to Confirm Inhibitors of Cancer Stem Cells. [Related pubchem assays (depositor defined):AID2717, AID2721]; type: functional; conditions: Homo sapiens
[5] = A cytotoxicity screen of small molecule inhibitors of the PhoP region in Salmonella typhi identified in the primary screen. [Related pubchem assays: 1850, 1864, 1985 ]; type: functional
[6] = C. albicans growth with fluconazole, confirmation, fluorescence, retest (AID 2467); type: functional, cell-based
[7] = system: BJ; experiment: cells; type: functional, cell-based; conditions: Homo sapiens
[8] = target: T1, Estrogen receptor beta (Homo sapiens, UniProt Q92731);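 also: recombinant ER-beta bound to coactivator SRC1 peptide in presence of estradiol agonist; inhibitors block coactivator peptide binding and lower the FRET signal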
T1 sequence (Q92731 whole entry): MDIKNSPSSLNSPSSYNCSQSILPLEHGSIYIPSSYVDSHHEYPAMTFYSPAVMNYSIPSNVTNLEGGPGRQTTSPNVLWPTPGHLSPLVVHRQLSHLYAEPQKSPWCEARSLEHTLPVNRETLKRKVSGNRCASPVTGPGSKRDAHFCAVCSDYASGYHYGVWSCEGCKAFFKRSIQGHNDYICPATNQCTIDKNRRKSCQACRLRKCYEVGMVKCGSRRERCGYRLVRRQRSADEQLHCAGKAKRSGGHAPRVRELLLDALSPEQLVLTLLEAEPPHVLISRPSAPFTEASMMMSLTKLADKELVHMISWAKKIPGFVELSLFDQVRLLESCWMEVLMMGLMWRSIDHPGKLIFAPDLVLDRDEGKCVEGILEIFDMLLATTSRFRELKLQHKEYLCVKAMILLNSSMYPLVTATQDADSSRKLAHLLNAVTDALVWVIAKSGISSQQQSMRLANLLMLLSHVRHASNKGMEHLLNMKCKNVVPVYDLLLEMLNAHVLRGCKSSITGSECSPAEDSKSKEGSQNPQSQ

[9] = cytotoxicity toward DRD oncogenic fibroblasts, dose response, cell-based, non-viral oncogenic, luminescence (AID 1934); type: functional; conditions: Homo sapiens
[10] = target: T2, Zinc finger protein mex-5 (Caenorhabditis elegans, UniProt Q9XUB2); experiment: MEX-5/TCR-2 RNA interaction inhibitors, dose response, biochemical, C. elegans, fluorescence polarization (AID 1960)
T2 sequence (Q9XUB2 whole entry): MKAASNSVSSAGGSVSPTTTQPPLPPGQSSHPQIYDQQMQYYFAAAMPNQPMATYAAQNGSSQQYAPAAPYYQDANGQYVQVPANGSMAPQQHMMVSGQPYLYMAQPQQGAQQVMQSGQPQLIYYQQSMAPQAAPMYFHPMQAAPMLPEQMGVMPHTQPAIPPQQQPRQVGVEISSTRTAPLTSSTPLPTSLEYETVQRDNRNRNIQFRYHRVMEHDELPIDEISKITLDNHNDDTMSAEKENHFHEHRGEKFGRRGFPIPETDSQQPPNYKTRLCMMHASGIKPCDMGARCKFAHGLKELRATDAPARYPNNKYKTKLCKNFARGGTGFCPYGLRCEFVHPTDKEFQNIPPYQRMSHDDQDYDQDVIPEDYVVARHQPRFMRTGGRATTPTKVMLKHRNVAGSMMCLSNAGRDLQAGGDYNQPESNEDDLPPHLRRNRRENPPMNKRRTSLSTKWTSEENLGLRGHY

[11] = Shn3 3'UTR reporter inhibitors, dose response, cell-based, Clone20 osteoblasts, firefly luciferase, cherry-picked (AID 624132); type: functional;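 also: firefly luciferase luminescence from reporter carrying the Shn3 3'UTR in osteoblasts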
[12] = target: T1, Estrogen receptor beta; experiment: ERβ–SRC-3 coactivator interaction inhibitors, confirmation, orthogonal assay, biochemical, ELISA, streptavidin-HRP readout (AID 1060)
[13] = miR-122 activators in hepatoma reporter cells, dose response, cell-based, Huh7 psiCHECK-miR122, Renilla luciferase, cherry-picked (AID 651956); type: functional;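 also: huh7 hepatoma cells stably carrying a psiCHECK-2 miR-122 sensor plasmid; renilla luciferase signal reporting endogenous miR-122 activity after 48 h compound exposure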
[14] = target: FAD-linked sulfhydryl oxidase ALR (Homo sapiens, UniProt P55789); experiment: inhibitors of human ALR sulfhydryl oxidase, dose response, biochemical, H2O2 detection, luminescence, cherry-pick (AID 493248)
Chain of FAD-linked sulfhydryl oxidase ALR (P55789 whole entry): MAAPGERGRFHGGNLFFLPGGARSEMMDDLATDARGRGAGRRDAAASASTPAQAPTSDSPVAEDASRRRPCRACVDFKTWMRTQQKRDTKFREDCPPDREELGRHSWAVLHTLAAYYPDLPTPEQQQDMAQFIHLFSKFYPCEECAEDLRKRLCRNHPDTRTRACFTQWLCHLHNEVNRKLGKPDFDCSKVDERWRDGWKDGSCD

[15] = system: BJ; experiment: cytotoxicity toward BJ-TERT-LT-ST fibroblasts, dose response, cell-based, RAS-independent, luminescence (AID 1935); type: functional; conditions: Homo sapiens;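 also: BJ fibroblasts immortalized with TERT plus LT and ST oncogenes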
[16] = control 3'UTR Renilla luciferase suppression, dose response, counter-screen for Shn3 inhibitor project, cell-based, Clone20-Shn3RL, cherry-picked (AID 624133); type: functional
[17] = target: Dual specificity tyrosine-phosphorylation-regulated kinase 1A (Rattus norvegicus, UniProt Q63470); type: biochemical, Homo sapiens
[18] = HEK293T cytotoxicity, dose response, cytotoxicity control for miR-122 modulator project, cell-based, inhibitor set, cherry-pick, set 2 (AID 720697); type: functional
[19] = HepG2 cell cytotoxicity, dose response, cytotoxicity control for Shn3 inhibitor project, CellTiter-Glo, cherry-picked (AID 624134); type: functional, cell-based
[20] = target: Cyclin-dependent kinase 5/CDK5 activator 1 (Homo sapiens, UniProt Q00535); experiment: CDK5/p35 kinase inhibitors, dose response, biochemical, cherry-picked samples, set 2 (AID 504545)
Chain of Cyclin-dependent kinase 5/CDK5 activator 1 (Q00535 whole entry, the tested form may be a part): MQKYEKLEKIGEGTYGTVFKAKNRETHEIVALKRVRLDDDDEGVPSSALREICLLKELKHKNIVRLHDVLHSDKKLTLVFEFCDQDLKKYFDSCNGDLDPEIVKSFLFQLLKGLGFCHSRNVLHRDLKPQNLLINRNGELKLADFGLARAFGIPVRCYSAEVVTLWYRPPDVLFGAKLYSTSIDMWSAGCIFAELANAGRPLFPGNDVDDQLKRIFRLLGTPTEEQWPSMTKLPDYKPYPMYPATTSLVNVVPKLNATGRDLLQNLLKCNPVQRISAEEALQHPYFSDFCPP
Chain of Cyclin-dependent kinase 5/CDK5 activator 1 (Q15078 whole entry, further chain, the tested form may be a part): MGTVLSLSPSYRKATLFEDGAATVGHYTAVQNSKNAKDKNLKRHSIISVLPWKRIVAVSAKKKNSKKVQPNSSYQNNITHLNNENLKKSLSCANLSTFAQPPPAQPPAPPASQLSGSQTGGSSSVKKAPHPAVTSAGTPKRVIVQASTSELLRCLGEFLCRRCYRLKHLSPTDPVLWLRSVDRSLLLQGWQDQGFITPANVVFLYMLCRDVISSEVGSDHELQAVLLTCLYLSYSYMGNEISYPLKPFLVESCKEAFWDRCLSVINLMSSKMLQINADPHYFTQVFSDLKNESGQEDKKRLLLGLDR

[21] = target: T3, RNA-binding protein pos-1 (Caenorhabditis elegans, UniProt G5EF15); experiment: inhibitors of POS-1/mex-3 RNA binding, dose response, biochemical, fluorescence polarization (AID 1964);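 also: purified POS-1 fused to maltose binding protein made in E. coli; potency of compounds blocking POS-1 binding to fluorescent RNA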
T3 sequence (G5EF15 whole entry): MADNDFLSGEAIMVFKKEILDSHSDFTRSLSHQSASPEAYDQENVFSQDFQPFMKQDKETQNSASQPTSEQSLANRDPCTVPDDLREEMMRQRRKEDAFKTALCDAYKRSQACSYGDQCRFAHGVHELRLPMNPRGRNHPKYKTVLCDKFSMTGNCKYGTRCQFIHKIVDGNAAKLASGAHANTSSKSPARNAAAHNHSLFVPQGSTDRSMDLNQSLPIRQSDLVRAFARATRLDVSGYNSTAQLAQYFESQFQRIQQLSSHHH

[22] = target: Large T antigen (Simian virus 40, UniProt P03070); type: functional, Betapolyomavirus macacae;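 also: Confirmatory-stage PubChem screen for compounds that inhibit SV40 T antigen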
[23] = system: BJ; experiment: cytotoxicity toward BJ-TERT fibroblasts, dose response, cell-based, RAS-independent, luminescence (AID 1933); type: functional; conditions: Homo sapiens
[24] = target: Polyadenylate-binding protein 1 (Homo sapiens, UniProt P11940); experiment: PABP poly(A) RNA binding inhibitors, primary screen, biochemical, fluorescence polarization, uHTS (AID 2014)
[25] = target: Eukaryotic translation initiation factor 4H (Homo sapiens, UniProt Q15056); experiment: human eIF4H binding inhibitors, primary screen, translation initiation inhibitor project, biochemical, uHTS, fluorescence polarization (AID 2012)
[26] = target: T4, Eukaryotic translation initiation factor 2-alpha kinase 3 (Homo sapiens, UniProt Q9NZJ5); experiment: Counterscreen assay for PERK inhibitors: Dose response cell-based high throughput screening assay to measure inhibition of PERK at 6 hours. [Related pubchem assays: 1522, 1416 ]; type: functional
T4 sequence (Q9NZJ5 whole entry): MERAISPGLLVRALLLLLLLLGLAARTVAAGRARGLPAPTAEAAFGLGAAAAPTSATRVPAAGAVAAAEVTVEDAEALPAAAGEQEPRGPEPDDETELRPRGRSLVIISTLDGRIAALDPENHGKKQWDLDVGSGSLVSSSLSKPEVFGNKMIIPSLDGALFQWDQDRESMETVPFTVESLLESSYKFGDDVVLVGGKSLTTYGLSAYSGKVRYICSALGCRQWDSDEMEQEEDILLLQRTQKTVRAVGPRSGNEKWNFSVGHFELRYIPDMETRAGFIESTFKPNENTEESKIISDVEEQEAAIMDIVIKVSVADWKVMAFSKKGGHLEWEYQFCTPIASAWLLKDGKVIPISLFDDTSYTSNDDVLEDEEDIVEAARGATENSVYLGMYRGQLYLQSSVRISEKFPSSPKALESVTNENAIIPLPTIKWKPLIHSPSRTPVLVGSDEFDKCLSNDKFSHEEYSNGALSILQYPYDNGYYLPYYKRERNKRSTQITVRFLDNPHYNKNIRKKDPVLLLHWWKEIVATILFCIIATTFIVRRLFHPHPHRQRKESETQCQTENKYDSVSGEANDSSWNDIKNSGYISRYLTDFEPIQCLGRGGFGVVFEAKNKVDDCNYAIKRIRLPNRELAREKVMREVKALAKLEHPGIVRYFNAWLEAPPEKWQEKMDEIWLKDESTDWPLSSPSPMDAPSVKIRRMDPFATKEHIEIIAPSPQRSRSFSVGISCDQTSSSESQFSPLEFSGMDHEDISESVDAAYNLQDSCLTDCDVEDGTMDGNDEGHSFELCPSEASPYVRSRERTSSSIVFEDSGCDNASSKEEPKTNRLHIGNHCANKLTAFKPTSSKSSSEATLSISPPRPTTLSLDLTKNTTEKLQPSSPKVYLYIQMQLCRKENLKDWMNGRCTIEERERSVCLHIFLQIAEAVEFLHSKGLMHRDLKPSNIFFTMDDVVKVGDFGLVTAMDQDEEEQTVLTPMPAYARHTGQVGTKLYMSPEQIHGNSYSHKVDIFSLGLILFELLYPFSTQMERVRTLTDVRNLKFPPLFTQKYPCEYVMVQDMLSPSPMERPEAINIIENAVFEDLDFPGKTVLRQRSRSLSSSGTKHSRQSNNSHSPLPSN

[27] = target: T4, Eukaryotic translation initiation factor 2-alpha kinase 3; experiment: Dose response cell-based high-throughput screening assay to measure PERK inhibition. [Related pubchem assays: 1416 ]; type: functional
[28] = target: Scavenger receptor class B member 1 (Mus musculus, UniProt Q61009); experiment: inhibitors of SR-BI mediated HDL lipid uptake, dose response, ldlA[mSR-BI] cells, fluorescence, cherry pick (AID 493194); type: functional, cell-based;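 also: cellular uptake of fluorescent DiI-labeled HDL measured as cell fluorescence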
Chain of Scavenger receptor class B member 1 (Q61009 whole entry): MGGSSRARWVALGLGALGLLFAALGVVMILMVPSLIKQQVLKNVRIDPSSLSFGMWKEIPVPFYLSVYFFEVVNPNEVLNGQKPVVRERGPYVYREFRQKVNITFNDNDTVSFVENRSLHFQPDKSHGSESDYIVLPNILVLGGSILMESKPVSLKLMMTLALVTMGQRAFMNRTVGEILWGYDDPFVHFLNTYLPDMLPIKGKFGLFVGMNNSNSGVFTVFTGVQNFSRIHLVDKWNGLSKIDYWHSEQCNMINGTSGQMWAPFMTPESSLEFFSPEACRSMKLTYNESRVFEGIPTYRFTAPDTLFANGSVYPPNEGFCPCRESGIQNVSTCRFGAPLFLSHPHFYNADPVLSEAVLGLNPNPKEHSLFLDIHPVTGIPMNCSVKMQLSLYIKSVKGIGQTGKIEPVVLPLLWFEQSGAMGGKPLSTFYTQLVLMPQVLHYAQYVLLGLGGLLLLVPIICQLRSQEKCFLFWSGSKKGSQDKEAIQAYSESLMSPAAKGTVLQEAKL

[29] = target: C-C chemokine receptor type 6 (Homo sapiens, UniProt P51684); experiment: CCR6 receptor antagonists, dose response, cell-based, luminescent beta-arrestin readout (AID 504728); type: functional
Chain of C-C chemokine receptor type 6 (P51684 whole entry): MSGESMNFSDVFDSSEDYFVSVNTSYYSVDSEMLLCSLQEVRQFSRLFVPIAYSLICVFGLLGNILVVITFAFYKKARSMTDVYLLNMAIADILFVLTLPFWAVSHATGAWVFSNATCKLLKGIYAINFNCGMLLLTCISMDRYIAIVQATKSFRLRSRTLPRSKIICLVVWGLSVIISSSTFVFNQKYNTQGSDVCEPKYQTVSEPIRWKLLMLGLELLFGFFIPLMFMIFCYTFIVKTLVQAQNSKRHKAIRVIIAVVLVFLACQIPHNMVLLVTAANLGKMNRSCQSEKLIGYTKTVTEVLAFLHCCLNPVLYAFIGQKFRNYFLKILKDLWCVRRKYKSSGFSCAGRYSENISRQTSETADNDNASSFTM

[30] = target: Beta-galactosidase (Escherichia coli, UniProt Q8VNN2); experiment: beta-galactosidase enzyme inhibitors and activators, dose response, artefact control for CCR6 antagonist project, biochemical, E. coli enzyme, set 3 (AID 504712); type: functional
[31] = inhibitors of SNCA 5'UTR-driven reporter translation, confirmation, H4 neuroglioma cells, luminescence (AID 1988); type: functional, cell-based
[32] = Luminescence Cell-Based Dose Response HTS to Identify Inhibitors of 5'UTR Stem-Loop Driven Prion Protein mRNA Translation in H4 Neuroglioblastoma Cells. [Related pubchem assays: 1827 (Project Summary), 1813 (Primary HTS)]; type: functional
[33] = target: Cytochrome P450 2D6 (Homo sapiens, UniProt P10635); experiment: qHTS Assay for Inhibitors and Substrates of Cytochrome P450 2D6. [Related pubchem assays: 410 ]; type: ADME; conditions: read-out: Potency
[34] = target: Cytochrome P450 2C9 (Homo sapiens, UniProt P11712); conditions: Potency
[35] = inhibitors of firefly luciferase expression or activity, dose response, H4 neuroglioma cells, luminescence (AID 1990); type: functional, cell-based
[36] = target: T5, Alkaline phosphatase, tissue-nonspecific isozyme (Homo sapiens, UniProt P05186)
T5 sequence (P05186 whole entry): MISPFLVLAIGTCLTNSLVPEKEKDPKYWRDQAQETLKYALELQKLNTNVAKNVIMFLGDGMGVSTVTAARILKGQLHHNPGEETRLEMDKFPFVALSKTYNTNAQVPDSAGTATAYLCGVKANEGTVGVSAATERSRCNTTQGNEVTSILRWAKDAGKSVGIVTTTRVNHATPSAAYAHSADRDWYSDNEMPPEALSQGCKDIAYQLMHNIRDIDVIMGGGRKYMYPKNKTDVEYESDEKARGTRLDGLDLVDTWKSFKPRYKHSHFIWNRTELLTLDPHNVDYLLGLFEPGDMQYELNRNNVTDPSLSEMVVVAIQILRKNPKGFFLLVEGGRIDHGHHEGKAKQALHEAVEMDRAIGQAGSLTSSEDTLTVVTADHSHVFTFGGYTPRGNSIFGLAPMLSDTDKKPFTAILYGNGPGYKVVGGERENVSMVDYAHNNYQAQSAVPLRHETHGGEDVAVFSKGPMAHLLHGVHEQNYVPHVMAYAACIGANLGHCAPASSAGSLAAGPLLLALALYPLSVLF

[37] = target: T6, Cysteine protease ATG4B (Homo sapiens, UniProt Q9Y4P1); type: functional;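 also: Fluorescence-based dose-response confirmation assay measuring inhibition of ATG4B activity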
T6 sequence (Q9Y4P1 whole entry): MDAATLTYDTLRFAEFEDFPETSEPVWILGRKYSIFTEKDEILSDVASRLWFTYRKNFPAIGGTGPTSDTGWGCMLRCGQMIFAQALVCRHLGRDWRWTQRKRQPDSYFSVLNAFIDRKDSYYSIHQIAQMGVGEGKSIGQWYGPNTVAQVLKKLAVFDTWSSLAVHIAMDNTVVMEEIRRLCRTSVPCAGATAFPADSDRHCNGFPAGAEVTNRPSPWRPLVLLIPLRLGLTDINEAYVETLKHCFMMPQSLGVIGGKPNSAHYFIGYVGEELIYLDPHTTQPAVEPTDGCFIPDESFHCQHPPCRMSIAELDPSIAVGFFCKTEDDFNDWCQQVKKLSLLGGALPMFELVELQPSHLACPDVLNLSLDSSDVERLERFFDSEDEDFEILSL

[38] = target: Intestinal-type alkaline phosphatase (Mus musculus, UniProt P24822); experiment: PubChem AID 488785; type: functional
[39] = target: Induced myeloid leukemia cell differentiation protein Mcl-1 (Homo sapiens, UniProt Q07820); type: functional
[40] = target: Phospholipase A2 (Homo sapiens, UniProt P04054); type: functional;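 also: confirmatory dose-response counterscreen on phospholipase A2, testing hits that came from an ultra-high-throughput screen for ATG4B inhibitors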
[41] = target: Likely tRNA 2'-phosphotransferase (Candida albicans (strain SC5314 / ATCC MYA-2876) (Yeast), UniProt Q5A7N4); experiment: TPT1 tRNA phosphotransferase inhibitors, dose response, biochemical, fluorescence polarization (AID 2160)
Chain of Likely tRNA 2'-phosphotransferase (Q5A7N4 whole entry): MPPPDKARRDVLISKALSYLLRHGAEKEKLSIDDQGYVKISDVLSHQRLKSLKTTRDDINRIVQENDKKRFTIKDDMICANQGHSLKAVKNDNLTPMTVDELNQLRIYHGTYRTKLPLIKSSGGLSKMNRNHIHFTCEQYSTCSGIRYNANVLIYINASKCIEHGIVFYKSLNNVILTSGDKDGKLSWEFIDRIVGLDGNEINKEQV

[42] = target: T7, SUMO-activating enzyme (Homo sapiens, UniProt Q9UBT2); experiment: SUMOylation inhibitor hit validation, confirmation, SUMOylation inhibitor project, biochemical, AlphaScreen (AID 2018); type: functional
T7 sequence (Q9UBE0 whole entry): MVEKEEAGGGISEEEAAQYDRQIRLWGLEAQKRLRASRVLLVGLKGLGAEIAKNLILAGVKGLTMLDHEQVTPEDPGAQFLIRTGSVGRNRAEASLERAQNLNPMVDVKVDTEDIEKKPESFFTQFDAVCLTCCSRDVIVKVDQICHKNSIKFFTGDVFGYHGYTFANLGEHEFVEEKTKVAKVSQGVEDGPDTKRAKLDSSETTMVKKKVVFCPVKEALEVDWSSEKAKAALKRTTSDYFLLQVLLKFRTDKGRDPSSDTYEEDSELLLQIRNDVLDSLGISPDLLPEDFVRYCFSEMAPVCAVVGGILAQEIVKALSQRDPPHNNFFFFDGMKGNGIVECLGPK
T7 sequence (Q9UBT2 whole entry): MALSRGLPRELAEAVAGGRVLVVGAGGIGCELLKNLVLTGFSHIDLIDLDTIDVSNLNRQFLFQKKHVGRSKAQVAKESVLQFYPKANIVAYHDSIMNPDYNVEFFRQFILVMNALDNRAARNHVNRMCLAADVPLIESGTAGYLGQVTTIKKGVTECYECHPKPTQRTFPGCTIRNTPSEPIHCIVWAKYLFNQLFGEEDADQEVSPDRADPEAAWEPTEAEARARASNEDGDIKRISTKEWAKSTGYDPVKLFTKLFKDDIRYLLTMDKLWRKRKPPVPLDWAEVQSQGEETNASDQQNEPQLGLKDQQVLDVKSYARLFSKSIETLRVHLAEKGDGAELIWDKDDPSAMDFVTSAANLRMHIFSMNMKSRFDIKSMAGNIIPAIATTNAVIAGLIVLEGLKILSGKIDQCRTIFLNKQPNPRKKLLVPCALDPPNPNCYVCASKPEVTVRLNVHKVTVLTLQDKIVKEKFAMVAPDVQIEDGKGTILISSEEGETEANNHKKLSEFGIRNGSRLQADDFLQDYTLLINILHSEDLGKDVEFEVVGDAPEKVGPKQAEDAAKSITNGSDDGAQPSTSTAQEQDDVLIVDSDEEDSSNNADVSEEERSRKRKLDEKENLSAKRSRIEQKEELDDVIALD

[43] = target: Intestinal-type alkaline phosphatase (Homo sapiens, UniProt P09923); experiment: activation of human intestinal alkaline phosphatase – biochemical, dose response (AID 488873); type: functional
[44] = target: T5, Alkaline phosphatase, tissue-nonspecific isozyme; experiment: TNAP enzyme inhibition by screening hits, dose response, selectivity assay for mouse IAP inhibitor project, biochemical, human TNAP, uHTS hits (AID 488906); type: functional
[45] = target: Guanyl-specific ribonuclease T1 (Aspergillus oryzae (strain ATCC 42149 / RIB 40), UniProt P00651); experiment: RNase T1 inhibitors, dose response, counter-screen for TPT1 inhibitor project, biochemical, fluorescence polarization, 1536-well (AID 2167)
[46] = target: T7, SUMO-activating enzyme; experiment: inhibitors of in vitro SUMOylation cascade, primary screen, biochemical, HTRF, uHTS (AID 2006); type: protein-complex assay

## Cc1ccc(-n2c(=S)[nH]c3c(oc4ccccc43)c2=O)cc1
[1]
  IC50: 6.54 µM (active)
[2]
  IC50: 4.75 µM (active)

## Cc1ccc(N/N=C/c2ccncc2)cc1
[3]
  EC50: 14.4 µM (active)
[4]
  AC50: 4.65 µM (active)
[5]
  EC50: > 50 µM (active)
[6]
  EC50: > 38 µM (not active)

## Oc1ccc(-c2nc(-c3ccc(O)c(O)c3)cs2)cc1
[7]
  EC50: 41.4 µM (active)
[8]
  IC50: 4.96 µM (active)
[9]
  EC50: 2.67 µM (inconclusive)
[10]
  EC50: 20.8 µM (inconclusive)
[11]
  AC50: 5.07 µM (active)
[12]
  IC50: 90.7 µM (not active)
[13]
  AC50: 29 µM (active)
[14]
  AC50: 1.22 µM (active)
[15]
  EC50: > 150 µM (not active)
[16]
  AC50: 5.09 µM (active)
[17]
  AC50: 3.19 µM (active)
[18]
  AC50: 1.31 µM (active)
[19]
  AC50: > 70 µM (inactive)
[20]
  AC50: 23.5 µM (active)
[21]
  EC50: 33.5 µM (active)
[22]
  IC50: 36.1 µM (active)
[23]
  EC50: 2.89 µM (inconclusive)

## O=C(Nc1ccc2ncccc2c1)c1ccccc1
[24]
  IC50: 14.2 µM (active)
[25]
  IC50: > 100 µM (inactive)

## FC(F)(F)c1cccc(Oc2ccc3c(C(F)(F)F)cc(C(F)(F)F)nc3n2)c1
[26]
  EC50: > 55.7 µM (not active)
[27]
  EC50: > 55.7 µM (not active)

## Cc1ccccc1NC(=O)NCC1CCN(c2ccc(S(=O)(=O)N3CCOCC3)cc2)CC1
[28]
  AC50: 1.04 µM (active)

## CN(Cc1ccccc1)S(=O)(=O)c1ccc(NC(=S)NC(=O)C2CCCCC2)cc1
[29]
  IC50: > 66.6 µM (inactive)
[30]
  IC50: > 66.6 µM (inactive)

## COc1cc2c(cc1OC)-c1c(OC)c(OC)cc3ccnc(c13)C2=O [OXOGLAUCINE]
[31]
  EC50: 7 µM (active)
[32]
  EC50: 9.88 µM (active)
[10]
  EC50: 0.834 µM (active)
[33]
  AC50: 10 µM (inconclusive)
[34]
  AC50: 39.8 µM (inconclusive)
[35]
  EC50: > 120 µM (not active)
[21]
  EC50: 68.6 µM (active)

## COc1cccc(N(C(=O)c2cc[nH]n2)C2(C(=O)Nc3c(C)cccc3C)CCCCC2)c1
[36]
  EC50: 52.9 µM (not active)

## O=C(NN1C(=O)/C(=C/C=C/c2ccco2)SC1=S)c1ccncc1
[37]
  IC50: 11.1 µM (active)
[38]
  IC50: 13.5 µM (active)
[39]
  IC50: 5.08 µM (active)
[40]
  IC50: > 80 µM (inactive)
[41]
  IC50: 14 µM (not active)
[42]
  IC50: 530 nM (active)
[43]
  EC50: > 100 µM (inactive)
[44]
  IC50: > 100 µM (inactive)
[45]
  IC50: 12.3 µM (not active)
[46]
  IC50: 6.1 µM (active)
